Test results reported in paper doi:10.1101/2025.07.07.663444v1, “Antifungal therapeutic potential of Candida albicans Fun30: screening and validation of novel inhibitors against Candida albicans” (biorxiv, 2025).

Tests used:
CaFun30 = target: T1, CaFun30 (Candida albicans, UniProt A0A1D8PTJ0); test: biolayer interferometry (Octet R8, Ni-NTA sensor, protein immobilised); format: binding; conditions: PBS pH 7.4, 2 mM beta-mercaptoethanol; 1:1 model
T1 construct: gene FUN30; full length, cloned NheI/XhoI in pET21c(+), expressed in E. coli BL21(DE3) Rosetta, Ni-NTA purified
T1 sequence (A0A1D8PTJ0 1-1097): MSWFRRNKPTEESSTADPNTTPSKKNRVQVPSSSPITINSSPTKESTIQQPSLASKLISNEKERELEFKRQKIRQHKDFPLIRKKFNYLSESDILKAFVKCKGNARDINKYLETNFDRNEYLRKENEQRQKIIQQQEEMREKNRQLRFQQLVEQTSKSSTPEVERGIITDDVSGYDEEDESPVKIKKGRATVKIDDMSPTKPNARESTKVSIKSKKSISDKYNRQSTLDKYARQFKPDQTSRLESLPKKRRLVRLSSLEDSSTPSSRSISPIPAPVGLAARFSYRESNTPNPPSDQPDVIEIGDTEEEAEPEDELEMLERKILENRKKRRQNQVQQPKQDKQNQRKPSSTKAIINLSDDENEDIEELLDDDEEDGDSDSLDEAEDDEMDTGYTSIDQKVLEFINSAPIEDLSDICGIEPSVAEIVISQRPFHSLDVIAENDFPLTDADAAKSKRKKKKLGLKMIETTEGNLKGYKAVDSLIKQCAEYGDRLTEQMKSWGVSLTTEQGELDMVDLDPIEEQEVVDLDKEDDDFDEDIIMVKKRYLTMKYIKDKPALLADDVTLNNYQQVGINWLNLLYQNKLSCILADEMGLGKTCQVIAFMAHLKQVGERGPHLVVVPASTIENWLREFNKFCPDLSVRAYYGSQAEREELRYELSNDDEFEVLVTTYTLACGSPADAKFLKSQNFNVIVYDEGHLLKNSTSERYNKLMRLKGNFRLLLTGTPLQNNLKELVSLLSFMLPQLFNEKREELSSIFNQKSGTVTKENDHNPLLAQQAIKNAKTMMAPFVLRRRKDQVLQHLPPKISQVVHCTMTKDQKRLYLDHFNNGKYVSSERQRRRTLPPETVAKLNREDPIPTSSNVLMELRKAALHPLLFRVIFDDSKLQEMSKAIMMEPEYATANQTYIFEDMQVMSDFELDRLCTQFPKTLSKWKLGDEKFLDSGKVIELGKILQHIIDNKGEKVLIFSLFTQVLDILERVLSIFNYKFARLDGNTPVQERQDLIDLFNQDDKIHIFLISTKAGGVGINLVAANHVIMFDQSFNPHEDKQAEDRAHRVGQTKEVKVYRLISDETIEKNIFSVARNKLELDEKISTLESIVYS

CaFun30-c334 = target: T2, CaFun30-c334 (Candida albicans, UniProt A0A1D8PTJ0); test: as above; format: binding; conditions: PBS pH 7.4, 2 mM beta-mercaptoethanol; 1:1 model
T2 construct: gene FUN30; C-terminal fragment (RecA-like domain 2, motifs IV-VI, no ATPase activity), probably the last 334 residues; pCOLD I vector (N-terminal His tag implied), E. coli BL21(DE3) Rosetta, Ni-NTA purified
T2 sequence (A0A1D8PTJ0 764-1097): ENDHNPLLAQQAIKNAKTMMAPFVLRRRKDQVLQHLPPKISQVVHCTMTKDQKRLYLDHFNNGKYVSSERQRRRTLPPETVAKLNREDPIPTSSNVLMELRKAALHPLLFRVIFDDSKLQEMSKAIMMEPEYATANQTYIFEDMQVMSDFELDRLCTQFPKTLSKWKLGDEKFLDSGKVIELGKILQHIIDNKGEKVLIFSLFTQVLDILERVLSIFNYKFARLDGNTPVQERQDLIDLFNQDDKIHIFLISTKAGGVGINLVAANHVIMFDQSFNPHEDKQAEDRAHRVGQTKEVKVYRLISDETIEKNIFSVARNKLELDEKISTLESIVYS

Row | Compound | Kd (CaFun30) [µM] | Kd (CaFun30-c334) [µM]
1 | CCc1cc2c(=O)c(-c3ccc(F)cc3)c(C)oc2cc1OCc1ccccc1 [F1067-0218] | 125 | 18
2 | Cc1nnc2sc(SCC(=O)Nc3ccc(Cl)cc3)nn2c1=O [F1853-0039] | 0.6 | 0.87
3 | Cc1ccc(NC(=O)CSc2nc(C(F)(F)F)cc(=O)[nH]2)cc1Cl [F2716-0594] | 680 | 25.1
